From patent US9776962B2, “Aromatic compounds with GPR40 agonistic activity” (TAKEDA PHARMACEUTICAL COMPANY LIMITED, priority 2013, dated 2017)

Each compound was assayed against T1, human GPR40 (Homo sapiens, UniProt O14842) (assay: Evaluation of human GPR40 agonist activity with increase in intracellular Ca2+ concentration as an index (FLIPR)). Conditions: test compound 1 μM; CHO(dhfr−) cells stably expressing human GPR40; 100% = 10 μM compound of Example 153, 0% = DMSO.
T1 construct: expressed in transfected cells
Assay type: cell-based
Procedure: Plasmid hGPR40/pAKKO-1.11H for mammalian cells expression, wherein cDNA fragment (SEQ ID NO: 1) encoding the full-length human GPR40 was incorporated into an expression vector pAKKO-1.11H (Biochimica et Biophysica Acta vol. 1219 pp. 251-259 (1994)), was transfected into CHO-dhfr(−) cells (ATCC, CRL-9096) by using Lipofectamine 2000 (Invitrogen:11668-019). After transfection, the limiting dilution-culture method was performed to select clone in selection medium (nucleic acid-free α-MEM (Invitrogen:12561-056)) containing 10% dialyzed bovine serum (Invitrogen:26400-044)). The expression level of human GPR40 mRNA was confirmed by TaqMan PCR (Life Technologies), and the intracellular calcium mobilization activity of GPR40 ligand (γ-linolenic acid) was confirmed by FLIPR (Molecular Devices), and a clone of human GPR40 expressing CHO cells was selected.
Evaluation of Human GPR40 Agonist Activity with Increase in Intracellular Ca^2+ Concentration as an Index
CHO(dhfr−) cells that stably expressed human GPR40 were suspended in MEMα (Nikken Bio Medical Laboratory) containing 10% dialyzed bovine serum (JR Scientific), 10 mM HEPES (Life Technologies), 100 U/mL penicillin, 100 μg/mL streptomycin (Life Technologies), and plated on a 384 well black/clear cell culture plate at 10,000 cells/well. After culture overnight in a CO2 incubator at 37° C., the culture supernatant was removed, and loading buffer [Ca^2+ probe attached to Calcium Kit II-iCellux (DOJINDO) was dissolved in assay buffer (20 mM HEPES, 0.1% fatty acid-free BSA (Sigma-Aldrich), 2.5 mM probenecid (DOJINDO)-containing HESS (Life Technologies))] was added at 30 μL/well. After leaving for 1 hr at room temperature under light shielding, assay buffer containing the test compound at a final concentration of 1 μM was added at 10 μL/well in FLIPR Tetra (Molecular Devices), and the fluorescence amount was successively measured. Human GPR40 agonist activity calculated using an increase in the intracellular Ca^2+ concentration as an index, wherein the activity of 10 μM of the compound of Example 153 was 100%, and the activity when DMSO was added instead of the test compound was 0%.

T1 sequence (O14842 whole entry): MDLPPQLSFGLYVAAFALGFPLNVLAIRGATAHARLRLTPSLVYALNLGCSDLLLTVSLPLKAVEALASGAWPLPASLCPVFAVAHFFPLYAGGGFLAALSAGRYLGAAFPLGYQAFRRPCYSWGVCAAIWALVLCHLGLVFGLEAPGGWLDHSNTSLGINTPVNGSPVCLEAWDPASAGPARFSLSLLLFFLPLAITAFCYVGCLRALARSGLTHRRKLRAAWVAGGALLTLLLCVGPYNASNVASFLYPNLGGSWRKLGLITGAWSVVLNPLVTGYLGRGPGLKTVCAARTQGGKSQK

activation at 1 µM [%] | SMILES
95 | COc1ccc(C(=O)N(CC2CC2)c2cc(C)ccn2)c(N2CCC(COc3cc(C(CC(=O)O)C4CC4)ccn3)CC2)c1 (stereo not shown) [Example 125, 3-cyclopropyl-3-(2-((1-(2-((cyclopropylmethyl)(4-methylpyridin-2-yl)carbamoyl)-5-methoxyphenyl)piperidin-4-yl)methoxy)pyridin-4-yl)propanoic acid]
99 | COc1ccc(C(=O)N(CC2CC(F)(F)C2)c2ccccn2)c(N2CCC(COc3cc(C(CC(=O)O)C4CC4)ccn3)CC2)c1 (stereo not shown) [Example 162, 3-cyclopropyl-3-(2-((1-(2-(((3,3-difluorocyclobutyl)methyl)(pyridin-2-yl)carbamoyl)-5-methoxyphenyl)piperidin-4-yl)methoxy)pyridin-4-yl)propanoic acid]
73 | CC(C)(C)CN(C(=O)c1ccc(Cl)nc1N1CCC(COc2cccc(C(CC(=O)O)C3CC3)c2)CC1)c1ccccn1 (stereo not shown) [Example 59, 3-(3-((1-(6-chloro-3-((2,2-dimethylpropyl)(pyridin-2-yl)carbamoyl)pyridin-2-yl)piperidin-4-yl)methoxy)phenyl)-3-cyclopropylpropanoic acid]
98 | COc1ccc(C(=O)N(CC(C)(C)C)c2cc(C)ncn2)c(N2CCC(COc3cc(C(CC(=O)O)C4CC4)ccn3)CC2)c1 (stereo not shown) [Example 230, 3-cyclopropyl-3-(2-((1-(2-((2,2-dimethylpropyl) (6-methylpyrimidin-4-yl)carbamoyl)-5-methoxyphenyl)piperidin-4-yl)methoxy)pyridin-4-yl)propanoic acid]
103 | COc1ccc(C(=O)N(CC2CCC2)c2ccccn2)c(N2CCC(COc3cc(C(CC(=O)O)C4CC4)ccn3)CC2)c1 (stereo not shown) [Example 118, 3-(2-((1-(2-((cyclobutylmethyl)(pyridin-2-yl)carbamoyl)-5-methoxyphenyl)piperidin-4-yl)methoxy)pyridin-4-yl)-3-cyclopropylpropanoic acid]
84 | CCc1ccc(C(=O)N(CC(C)(C)C)c2cccc(C)n2)c(N2CCC(COc3cccc(C(CC(=O)O)C4CC4)c3)CC2)c1 (stereo not shown) [Example 55, 3-cyclopropyl-3-(3-((1-(2-((2,2-dimethylpropyl)(6-methylpyridin-2-yl)carbamoyl)-5-ethylphenyl)piperidin-4-yl)methoxy)phenyl)propanoic acid]
87 | COc1ccc(C(=O)N(CC(C)(C)C)c2cccc(C)n2)c(N2CCC(COc3cc(C(CC(=O)O)C4CC4)ccn3)CC2)c1F (stereo not shown) [Example 252, 3-cyclopropyl-3-(2-((1-(6-((2,2-dimethylpropyl)(6-methylpyridin-2-yl)carbamoyl)-2-fluoro-3-methoxyphenyl)piperidin-4-yl)methoxy)pyridin-4-yl)propanoic acid]
95 | CCOC(CC(=O)O)c1ccnc(OCC2CCN(c3cc(OC)ccc3C(=O)N(CC(C)(C)C)c3cccc(C)n3)CC2)c1 (stereo not shown) [Example 272, 3-(2-((1-(2-((2,2-dimethylpropyl)(6-methylpyridin-2-yl)carbamoyl)-5-methoxyphenyl)piperidin-4-yl)methoxy)pyridin-4-yl)-3-ethoxypropanoic acid]
103 | COc1ccc(C(=O)N(CCC(C)C)c2ccccn2)c(N2CCC(COc3cc(C(CC(=O)O)C4CC4)ccn3)CC2)c1 (stereo not shown) [Example 159, 3-cyclopropyl-3-(2-((1-(5-methoxy-2-((3-methylbutyl)(pyridin-2-yl)carbamoyl)phenyl)piperidin-4-yl)methoxy)pyridin-4-yl)propanoic acid]
85 | COc1ccc(C(=O)N(CC(C)(C)C)c2cc(C)cnn2)c(N2CCC(COc3cc(C(CC(=O)O)C4CC4)ccn3)CC2)c1 (stereo not shown) [Example 232, 3-cyclopropyl-3-(2-((1-(2-((2,2-dimethylpropyl) (5-methylpyridazin-3-yl)carbamoyl)-5-methoxyphenyl)piperidin-4-yl)methoxy)pyridin-4-yl)propanoic acid]
97 | COc1ccc(C(=O)N(CC(C)(C)OCC(F)(F)F)c2ccccn2)c(N2CCC(COc3cc(C(CC(=O)O)C4CC4)ccn3)CC2)c1 (stereo not shown) [Example 161, 3-cyclopropyl-3-(2-((1-(5-methoxy-2-((2-methyl-2-(2,2,2-trifluoroethoxy)propyl)(pyridin-2-yl)carbamoyl)phenyl)piperidin-4-yl)methoxy)pyridin-4-yl)propanoic acid]
100 | COc1ccc(C(=O)N(CC2(F)CCC2)c2ccccn2)c(N2CCC(COc3cc(C(CC(=O)O)C4CC4)ccn3)CC2)c1 (stereo not shown) [Example 154, 3-cyclopropyl-3-(2-((1-(2-(((1-fluorocyclobutyl)methyl)(pyridin-2-yl)carbamoyl)-5-methoxyphenyl)piperidin-4-yl)methoxy)pyridin-4-yl)propanoic acid]
79 | COc1ccc(C(=O)N(CC2(F)CC2)c2ccccn2)c(N2CCC(COc3cc(C(CC(=O)O)C4CC4)ccn3)CC2)c1 (stereo not shown) [Example 144, 3-cyclopropyl-3-(2-((1-(2-(((1-fluorocyclopropyl)methyl)(pyridin-2-yl)carbamoyl)-5-methoxyphenyl)piperidin-4-yl)methoxy)pyridin-4-yl)propanoic acid]
101 | CCC(C)(C)CN(C(=O)c1ccc(OC)cc1N1CCC(COc2cc(C(CC(=O)O)C3CC3)ccn2)CC1)c1ccccn1 (stereo not shown) [Example 149, 3-cyclopropyl-3-(2-((1-(2-((2,2-dimethylbutyl)(pyridin-2-yl)carbamoyl)-5-methoxyphenyl)piperidin-4-yl)methoxy)pyridin-4-yl)propanoic acid]
100 | COc1ccc(C(=O)N(CC(C)(C)F)c2ccccn2)c(N2CCC(COc3cc(C(CC(=O)O)C4CC4)ccn3)CC2)c1 (stereo not shown) [Example 120, 3-cyclopropyl-3-(2-((1-(2-((2-fluoro-2-methylpropyl)(pyridin-2-yl)carbamoyl)-5-methoxyphenyl)piperidin-4-yl)methoxy)pyridin-4-yl)propanoic acid]
87 | COc1ccc(C(=O)N(c2ccccn2)C2CCC2)c(N2CCC(COc3cc(C(CC(=O)O)C4CC4)ccn3)CC2)c1 (stereo not shown) [Example 151, 3-(2-((1-(2-(cyclobutyl(pyridin-2-yl)carbamoyl)-5-methoxyphenyl)piperidin-4-yl)methoxy)pyridin-4-yl)-3-cyclopropylpropanoic acid]
98 | COc1ccc(C(=O)N(CC2CC2)c2nccc(C(F)(F)F)n2)c(N2CCC(COc3cc(C(CC(=O)O)C4CC4)ccn3)CC2)c1 (stereo not shown) [Example 237, 3-cyclopropyl-3-(2-((1-(2-((cyclopropylmethyl) (4-(trifluoromethyl)-pyrimidin-2-yl)carbamoyl)-5-methoxyphenyl)piperidin-4-yl)methoxy)pyridin-4-yl)propanoic acid]
95 | COc1ccc(C(=O)N(CC2CC2)c2ccccn2)c(N2CCC(COc3cc(C(CC(=O)O)C4CC4)ccn3)CC2)c1 (stereo not shown) [Example 117, 3-cyclopropyl-3-(2-((1-(2-((cyclopropylmethyl)(pyridin-2-yl)carbamoyl)-5-methoxyphenyl)piperidin-4-yl)methoxy)pyridin-4-yl)propanoic acid]
52 | COc1ccc(C(=O)N(CC(C)(C)O)c2ccccn2)c(N2CCC(COc3cc(C(CC(=O)O)C4CC4)ccn3)CC2)c1 (stereo not shown) [Example 119, 3-cyclopropyl-3-(2-((1-(2-((2-hydroxy-2-methylpropyl)(pyridin-2-yl)carbamoyl)-5-methoxyphenyl)piperidin-4-yl)methoxy)pyridin-4-yl)propanoic acid]
